Assay results taken from patent US8933224B2, “Triazine derivatives” (Pfizer Inc., priority 2013, dated 2015).

Biological target: rat PDE10 enzyme (Rattus norvegicus (Rat), UniProt Q9QYJ6)
Assay: PDE10 scintillation proximity assay (SPA), inhibition of rat PDE10 enzyme activity
Format: biochemical
Settings: geometric mean of 2-4 determinations unless otherwise indicated (b: ≧5 determinations; c: single determination)
Experimental: PDE10 activity was measured using a scintillation assay (SPA-based method) similar to that previously described by Seeger, T. F. et al., Brain Research 985 (2003) 113-126. The compounds' relative activity as PDE10 inhibitors was investigated by assaying a fixed amount of enzyme in the presence of the test compound and low substrate concentration (cAMP) such that an IC50 could be determined. […] The assay is performed in a 384-well format with 50 μL assay buffer (50 mM TRIS pH 7.5; 1.3 mM MgCl2; 0.01% Brij) containing enough PDE10 to convert ˜20% of 20 nM ^3H-cAMP, and a range of inhibitors. Reactions are incubated for 30 minutes at 25° C. The addition of 20 μL of 8 mg/ml yttrium silicate SPA beads (PerkinElmer) stops the reaction. The plates are sealed (TopSeal, PerkinElmer) and the beads are allowed to settle for 8 hrs, after which they are read on the Trilux Microbeta overnight. ^1Rat enzyme preparation:^2Human enzyme preparation:
The recombinant Bacmid was isolated and used to transfect sf9 insect cells to generate a viral stock. To generate cell paste for purification, sf21 cells were infected with the virus stock and cells were harvested 72 hours after infection as described in Seeger, T. F. et al., Brain Research 985 (2003) 113-126. Insect cell paste was lysed and after centrifugation, the supernatant was chromatographed on Ni-NTA agarose (Qiagen) followed by Mono Q (GE Healthcare Life Sciences) as described in Seeger, T. F. et al., Brain Research 985 (2003) 113-126.

Chain of rat PDE10 enzyme (Q9QYJ6 24-794): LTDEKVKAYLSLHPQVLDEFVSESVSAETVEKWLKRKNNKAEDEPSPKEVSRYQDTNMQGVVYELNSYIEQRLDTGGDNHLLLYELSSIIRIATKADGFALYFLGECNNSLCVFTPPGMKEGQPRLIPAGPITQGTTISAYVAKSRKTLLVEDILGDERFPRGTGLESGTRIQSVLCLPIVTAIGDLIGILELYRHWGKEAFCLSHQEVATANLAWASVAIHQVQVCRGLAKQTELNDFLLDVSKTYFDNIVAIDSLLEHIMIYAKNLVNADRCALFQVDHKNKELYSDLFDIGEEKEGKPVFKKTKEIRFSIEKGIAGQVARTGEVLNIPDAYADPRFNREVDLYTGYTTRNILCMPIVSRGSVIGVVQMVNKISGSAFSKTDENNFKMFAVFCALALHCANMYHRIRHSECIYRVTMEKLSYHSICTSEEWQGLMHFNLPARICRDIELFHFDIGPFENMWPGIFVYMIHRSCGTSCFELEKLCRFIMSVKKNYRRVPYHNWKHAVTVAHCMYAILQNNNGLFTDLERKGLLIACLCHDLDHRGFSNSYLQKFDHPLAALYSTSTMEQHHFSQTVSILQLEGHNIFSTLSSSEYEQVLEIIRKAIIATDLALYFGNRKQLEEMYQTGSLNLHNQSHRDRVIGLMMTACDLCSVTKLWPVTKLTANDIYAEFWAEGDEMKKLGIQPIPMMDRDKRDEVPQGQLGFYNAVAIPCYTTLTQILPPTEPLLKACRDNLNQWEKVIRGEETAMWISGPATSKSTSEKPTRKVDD

| SMILES | IC50 |
| --- | --- |
| Cc1nc(-c2ccc(F)cc2Cl)c2c(N3CCc4nc(C5CC5)ncc4C3)ncnn12 [Example 7, 6-[5-(2-Chloro-4-fluorophenyl)-7-methylimidazo[5,1-f][1,2,4]triazin-4-yl]-2-cyclopropyl-5,6,7,8-tetrahydropyrido[4,3-d]pyrimidine] | 8.44 nM |
| Cc1ccccc1-c1nc(C)n2ncnc(N3CCc4c(c(C(C)C)nn4C)C3)c12 [Example 10, 4-(3-Isopropyl-1-methyl-1,4,6,7-tetrahydro-5H-pyrazolo[4,3-c]pyridin-5-yl)-7-methyl-5-(2-methylphenyl)imidazo[5,1-f][1,2,4]triazine] | 0.56 nM |
| COc1cc2c(cc1OC)CN(c1ncnn3c(C)nc([C@H]4CCOC4)c13)CC2 [Example 14, 6,7-dimethoxy-2-{7-methyl-5-[(3R)-tetrahydrofuran-3-yl]imidazo[5,1-f][1,2,4]triazin-4-yl}-1,2,3,4-tetrahydroisoquinoline] | 1.62 nM |
| COc1cc2c(cc1OC)CN(c1ncnn3c(C)nc([C@@H]4CCOC4)c13)CC2 [Example 15, 6,7-dimethoxy-2-{7-methyl-5-[(3S)-tetrahydrofuran-3-yl]imidazo[5,1-f][1,2,4]triazin-4-yl}-1,2,3,4-tetrahydroisoquinoline] | 0.716 nM |
| Cc1nc([C@@H]2CCOC2)c2c(N3CCc4nc(C5CC5)ncc4C3)ncnn12 [Example 16, 2-cyclopropyl-6-{7-methyl-5-[(3S)-tetrahydrofuran-3-yl]imidazo{5,1-f][1,2,4]triazin-4-yl}-5,6,7,8-tetrahydropyrido[4,3-d]pyrimidine] | 6.55 nM |
| COc1ccc2c(c1OC)CN(c1ncnn3c(C)nc([C@@H]4CCOC4)c13)CC2 [Example 17, 7,8-dimethoxy-2-{7-methyl-5-[(3S)-tetrahydrofuran-3-yl]imidazo[5,1-f][1,2,4]triazin-4-yl}-1,2,3,4-tetrahydroisoquinoline] | < 0.24 nM |
| Cc1nc(C2CCCO2)c2c(N3CCc4nc(C5CC5)ncc4C3)ncnn12 (stereo not drawn) [Example 22, 2-cyclopropyl-6-[7-methyl-5-(tetrahydrofuran-2-yl)imidazo[5,1-f][1,2,4]triazin-4-yl]-5,6,7,8-tetrahydropyrido[4,3-d]pyrimidine] | 5.2 nM |
| Cc1ccccc1-c1nc(C)n2ncnc(N3CCc4nc(C5CC5)ncc4C3)c12 [Example 24, 2-cyclopropyl-6-[7-methyl-5-(2-methylphenyl)imidazo[5,1-f][1,2,4]triazin-4-yl]-5,6,7,8-tetrahydropyrido[4,3-d]pyrimidine] | < 3.29 nM |
| Cc1nc([C@H]2CCOC2)c2c(N3CCc4nn(C5CC5)cc4C3)ncnn12 [Example 26, 4-(2-cyclopropyl-2,4,6,7-tetrahydro-5H-pyrazolo[4,3-c]pyridin-5-yl)-7-methyl-5-[(3R)-tetrahydrofuran-3-yl]imidazo[5,1-f][1,2,4]triazine] | < 2.26 nM |
| Cc1nc([C@@H]2CCOC2)c2c(N3CCc4noc(C(C)C)c4C3)ncnn12 [Example 30, 7-methyl-4[3-(propan-2-yl)-6,7-dihydro[1,2]oxazolo[4,3-c]pyridin-5(4H)-yl]-5-[(3S)-tetrahydrofuran-3-yl]imidazo[5,1-f][1,2,4]triazine] | 3.52 nM |
| CCc1onc2c1CN(c1ncnn3c(C)nc([C@@H]4CCOC4)c13)CC2 [Example 31] | 3.73 nM |
| CCc1noc2c1CN(c1ncnn3c(C)nc([C@@H]4CCOC4)c13)CC2 [Example 32] | 3.74 nM |
| Cc1onc2c1CN(c1ncnn3c(C)nc([C@@H]4CCOC4)c13)CC2 [Example 33, 7-methyl-4-(3-methyl-6,7-dihydro[1,2]oxazolo[4,3-c]pyridin-5(4H)-yl)-5-[(3S)-tetrahydrofuran-3-yl]imidazo[5,1-f][1,2,4]triazine] | 23.3 nM |

Second part, the compound after the results:

| IC50 | SMILES |
| --- | --- |
| 16.5 nM | Cc1noc2c1CN(c1ncnn3c(C)nc([C@@H]4CCOC4)c13)CC2 [Example 34, 7-methyl-4-(3-methyl-6,7-dihydro[1,2]oxazolo[4,5-c]pyridin-5(4H)-yl)-5-[(3S)-tetrahydrofuran-3-yl]imidazo[5,1-f][1,2,4]triazine] |
| 0.44 nM | Cc1nc2c(c(OC(F)F)n1)CN(c1ncnn3c(C)nc([C@@H]4CCOC4)c13)CC2 [Example 36, 4-(difluoromethoxy)-2-methyl-6-{7-methyl-5-[(3S)-tetrahydrofuran-3-yl]imidazo[5,1-f][1,2,4]triazin-4-yl}-5,6,7,8-tetrahydropyrido[4,3-d]pyrimidine] |
| 0.193 nM | COc1nc(C2CC2)nc2c1CN(c1ncnn3c(C)nc([C@@H]4CCOC4)c13)CC2 [Example 39, 2-cyclopropyl-4-methoxy-6-{7-methyl-5-[(3S)-tetrahydrofuran-3-yl]imidazo[5,1-f][1,2,4]triazin-4-yl}-5,6,7,8-tetrahydropyrido[4,3-d]pyrimidine] |
| < 0.175 nM | Cc1nc(C2CC2)nc2c1CN(c1ncnn3c(C)nc([C@@H]4CCOC4)c13)CC2 [Example 41, 2-cyclopropyl-4-methyl-6-{7-methyl-5-[(3S)-tetrahydrofuran-3-yl]imidazo[5,1-f][1,2,4]triazin-4-yl}-5,6,7,8-tetrahydropyrido[4,3-d]pyrimidine] |
| < 3.23 nM | COc1cc2c(cc1OC)CN(c1ncnn3c(C)nc(-c4ccccc4F)c13)CC2 [Example 42, 2-[5-(2-fluorophenyl)-7-methylimidazo[5,1-f][1,2,4]triazin-4-yl]-6,7-dimethoxy-1,2,3,4-tetrahydroisoquinoline] |
| 0.465 nM | Cc1nc(-c2ccccc2F)c2c(N3CCc4c(c(C(C)C)nn4C)C3)ncnn12 [Example 43, 5-(2-fluorophenyl)-4-(3-isopropyl-1-methyl-1,4,6,7-tetrahydro-5H-pyrazolo[4,3-c]pyridin-5-yl)-7-methylimidazo[5,1-f][1,2,4]triazine] |
| 3.84 nM | Cc1nc(C2CCCO2)c2c(N3CCc4c(c(C(C)C)nn4C)C3)ncnn12 (stereo not drawn) [Example 45, 4-(3-isopropyl-1-methyl-1,4,6,7-tetrahydro-5H-pyrazolo[4,3-c]pyridin-5-yl)-7-methyl-5-(tetrahydrofuran-2-yl)imidazo[5,1-f][1,2,4]triazine] |
| 1.98 nM | Cc1nc(-c2ccccc2F)c2c(N3CCc4noc(C5CC5)c4C3)ncnn12 [Example 46, 4-(3-cyclopropyl-6,7-dihydroisoxazolo[4,3-c]pyridin-5(4H)-yl)-5-(2-fluorophenyl)-7-methylimidazo[5,1-f][1,2,4]triazine] |
| < 1 nM | CCc1nn(C)c2c1CN(c1ncnn3c(C)nc(CC(C)C)c13)CC2 [Example 48, 4-(3-ethyl-1-methyl-1,4,6,7-tetrahydro-5H-pyrazolo[4,3-c]pyridin-5-yl)-5-isobutyl-7-methylimidazo[5,1-f][1,2,4]triazine] |
| 13.5 nM | Cc1nc([C@H]2CCOC2)c2c(N3CCc4cc(Cl)c(Cl)cc4C3)ncnn12 [Example 51, 6,7-dichloro-2-{7-methyl-5-[(3R)-tetrahydrofuran-3-yl]imidazo[5,1-f][1,2,4]triazin-4-yl}-1,2,3,4-tetrahydroisoquinoline] |
| 0.101 nM | Cc1nc([C@@H]2CCOC2)c2c(N3CCc4nc(C5CC5)nc(O)c4C3)ncnn12 [Example 52, 2-cyclopropyl-6-{7-methyl-5-[(3S)-tetrahydrofuran-3-yl]imidazo[5,1-f][1,2,4]triazin-4-yl}-5,6,7,8-tetrahydropyrido[4,3-d]pyrimidin-4-ol] |
